The values below are quoted from earlier work in patent US12343348B2, “Methods for treating subjects with Prader-Willi syndrome or Smith-Magenis syndrome” (Essentialis, Inc., priority 2014, dated 2025).

One series addresses Kir6.2/SUR1 channel (Rattus norvegicus, UniProt Q09429). The following applies: Dabrowski, et al., Diabetes 51 (2002).
For another series, the target named is T1, KATP channel (Homo sapiens, UniProt Q09428).
T1 construct: host or cells: patients with hyperinsulinism or pancreatic insulinoma (endogenous channel)
The following applies: patients with hyperinsulinism and patients with pancreatic insulinoma.

Sequence of Kir6.2/SUR1 channel (Q09429 whole entry): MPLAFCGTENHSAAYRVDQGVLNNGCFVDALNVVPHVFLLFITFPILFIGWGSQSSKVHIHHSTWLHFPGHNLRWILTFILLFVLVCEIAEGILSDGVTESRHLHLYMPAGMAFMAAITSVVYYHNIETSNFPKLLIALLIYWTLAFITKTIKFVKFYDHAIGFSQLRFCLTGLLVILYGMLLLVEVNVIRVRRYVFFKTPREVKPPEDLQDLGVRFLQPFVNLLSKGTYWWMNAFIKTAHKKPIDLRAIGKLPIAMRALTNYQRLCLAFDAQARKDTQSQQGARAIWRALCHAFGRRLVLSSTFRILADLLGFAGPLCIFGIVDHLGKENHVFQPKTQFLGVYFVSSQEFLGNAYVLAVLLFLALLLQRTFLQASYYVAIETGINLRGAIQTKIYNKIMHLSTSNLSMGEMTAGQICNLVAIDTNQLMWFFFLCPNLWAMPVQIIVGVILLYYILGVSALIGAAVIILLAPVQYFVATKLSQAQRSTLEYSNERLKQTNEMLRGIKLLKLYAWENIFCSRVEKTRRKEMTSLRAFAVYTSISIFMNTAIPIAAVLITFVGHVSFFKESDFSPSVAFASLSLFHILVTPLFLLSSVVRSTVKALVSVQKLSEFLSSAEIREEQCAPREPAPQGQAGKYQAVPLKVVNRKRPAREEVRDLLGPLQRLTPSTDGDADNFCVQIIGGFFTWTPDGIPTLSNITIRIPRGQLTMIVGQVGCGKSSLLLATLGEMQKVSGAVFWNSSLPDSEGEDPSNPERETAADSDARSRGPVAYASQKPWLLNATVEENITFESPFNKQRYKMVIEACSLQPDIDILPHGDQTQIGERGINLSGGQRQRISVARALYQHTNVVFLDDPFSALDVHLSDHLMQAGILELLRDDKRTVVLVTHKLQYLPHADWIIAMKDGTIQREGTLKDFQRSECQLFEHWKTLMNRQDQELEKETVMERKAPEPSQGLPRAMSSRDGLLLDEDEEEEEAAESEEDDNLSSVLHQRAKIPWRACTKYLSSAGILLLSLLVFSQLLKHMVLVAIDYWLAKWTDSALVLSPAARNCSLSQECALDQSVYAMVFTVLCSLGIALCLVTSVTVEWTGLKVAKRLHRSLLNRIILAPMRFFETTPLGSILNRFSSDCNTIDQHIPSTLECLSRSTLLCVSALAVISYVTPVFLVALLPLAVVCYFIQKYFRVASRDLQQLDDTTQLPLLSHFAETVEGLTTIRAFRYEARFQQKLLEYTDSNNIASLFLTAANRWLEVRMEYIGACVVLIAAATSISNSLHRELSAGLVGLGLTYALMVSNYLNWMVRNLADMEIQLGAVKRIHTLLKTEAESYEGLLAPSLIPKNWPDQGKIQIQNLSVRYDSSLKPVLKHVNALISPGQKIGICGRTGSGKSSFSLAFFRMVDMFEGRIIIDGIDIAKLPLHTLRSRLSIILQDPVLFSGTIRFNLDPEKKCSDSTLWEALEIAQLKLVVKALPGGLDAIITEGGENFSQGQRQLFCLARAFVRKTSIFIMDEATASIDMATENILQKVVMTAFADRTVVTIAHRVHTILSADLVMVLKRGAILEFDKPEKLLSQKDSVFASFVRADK
Sequence of Kir6.2/SUR1 channel (Q61743 whole entry partner): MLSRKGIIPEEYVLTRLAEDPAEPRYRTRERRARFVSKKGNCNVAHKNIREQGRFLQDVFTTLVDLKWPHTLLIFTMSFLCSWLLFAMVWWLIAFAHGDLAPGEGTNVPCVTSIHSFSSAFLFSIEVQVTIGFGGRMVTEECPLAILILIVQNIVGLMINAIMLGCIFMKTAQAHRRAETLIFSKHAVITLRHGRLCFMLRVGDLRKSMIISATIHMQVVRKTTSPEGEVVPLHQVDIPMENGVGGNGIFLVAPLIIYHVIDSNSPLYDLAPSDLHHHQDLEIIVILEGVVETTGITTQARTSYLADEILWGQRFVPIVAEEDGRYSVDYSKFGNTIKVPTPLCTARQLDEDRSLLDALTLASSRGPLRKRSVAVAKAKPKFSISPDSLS
T1 sequence (Q09428 whole entry): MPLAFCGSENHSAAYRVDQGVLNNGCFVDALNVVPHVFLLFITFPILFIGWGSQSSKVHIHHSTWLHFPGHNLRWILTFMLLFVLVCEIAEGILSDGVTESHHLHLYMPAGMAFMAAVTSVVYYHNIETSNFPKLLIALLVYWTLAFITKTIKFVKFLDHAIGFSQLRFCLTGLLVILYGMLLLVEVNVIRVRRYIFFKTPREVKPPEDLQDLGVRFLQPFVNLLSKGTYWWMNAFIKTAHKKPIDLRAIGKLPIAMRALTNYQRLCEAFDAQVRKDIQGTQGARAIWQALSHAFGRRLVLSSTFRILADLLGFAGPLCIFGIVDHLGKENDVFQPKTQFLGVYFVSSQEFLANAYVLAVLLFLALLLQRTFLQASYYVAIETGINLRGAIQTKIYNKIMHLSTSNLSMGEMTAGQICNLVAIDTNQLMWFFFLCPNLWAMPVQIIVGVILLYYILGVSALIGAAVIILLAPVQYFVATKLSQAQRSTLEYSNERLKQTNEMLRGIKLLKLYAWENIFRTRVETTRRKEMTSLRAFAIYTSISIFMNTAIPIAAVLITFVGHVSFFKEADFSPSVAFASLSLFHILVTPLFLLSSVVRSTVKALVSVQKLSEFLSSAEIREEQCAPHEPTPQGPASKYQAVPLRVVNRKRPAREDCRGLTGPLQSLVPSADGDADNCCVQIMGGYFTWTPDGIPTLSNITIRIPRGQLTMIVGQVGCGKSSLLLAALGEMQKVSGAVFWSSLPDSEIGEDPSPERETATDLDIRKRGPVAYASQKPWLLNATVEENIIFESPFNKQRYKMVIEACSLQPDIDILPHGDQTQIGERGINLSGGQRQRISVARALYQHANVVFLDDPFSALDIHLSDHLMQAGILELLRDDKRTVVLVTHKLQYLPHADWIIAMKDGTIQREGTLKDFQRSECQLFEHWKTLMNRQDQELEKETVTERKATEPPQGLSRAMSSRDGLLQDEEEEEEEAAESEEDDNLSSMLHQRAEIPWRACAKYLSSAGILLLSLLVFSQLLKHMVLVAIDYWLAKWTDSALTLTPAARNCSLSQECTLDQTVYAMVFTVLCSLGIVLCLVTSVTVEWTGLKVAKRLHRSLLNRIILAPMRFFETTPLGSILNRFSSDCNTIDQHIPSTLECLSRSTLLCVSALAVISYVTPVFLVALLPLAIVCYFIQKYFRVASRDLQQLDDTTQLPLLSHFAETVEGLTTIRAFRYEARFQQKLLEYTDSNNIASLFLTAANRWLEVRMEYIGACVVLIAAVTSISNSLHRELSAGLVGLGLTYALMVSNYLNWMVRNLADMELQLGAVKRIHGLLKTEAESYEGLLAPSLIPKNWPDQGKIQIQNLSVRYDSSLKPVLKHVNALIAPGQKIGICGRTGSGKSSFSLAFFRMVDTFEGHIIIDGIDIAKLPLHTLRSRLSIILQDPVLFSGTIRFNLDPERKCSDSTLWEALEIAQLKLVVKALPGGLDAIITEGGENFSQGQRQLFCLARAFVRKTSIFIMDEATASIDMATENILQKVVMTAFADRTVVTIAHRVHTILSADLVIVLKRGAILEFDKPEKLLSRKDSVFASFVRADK
T1 sequence (Q14654 whole entry partner): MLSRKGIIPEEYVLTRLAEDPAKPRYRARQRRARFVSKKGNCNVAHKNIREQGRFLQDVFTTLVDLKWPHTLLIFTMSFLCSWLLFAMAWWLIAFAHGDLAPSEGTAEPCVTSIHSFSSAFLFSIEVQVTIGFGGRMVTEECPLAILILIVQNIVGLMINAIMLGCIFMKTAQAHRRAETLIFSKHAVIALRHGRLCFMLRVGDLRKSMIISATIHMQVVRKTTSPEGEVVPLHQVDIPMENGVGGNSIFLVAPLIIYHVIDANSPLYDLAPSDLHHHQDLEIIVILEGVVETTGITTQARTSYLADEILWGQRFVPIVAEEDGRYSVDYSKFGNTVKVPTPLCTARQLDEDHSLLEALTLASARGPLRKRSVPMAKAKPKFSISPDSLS

Consider `COc1ccc2c(c1)S(=O)(=O)N=C(NC(C)C)N2` [3-isopropylamino-7-methoxy-4H-1,2,4,-benzothiadiazine 1,1-dioxide], for which, on Kir6.2/SUR1 channel, the “KATP channel opener selectivity” value is reported as “selective Kir6.2/SUR1 channel opener”.
Turning to `CC(C)N=C1Nc2cc(Cl)c(Cl)cc2S(=O)(=O)N1` [BPDZ 154], the KATP channel activation entry on KATP channel is reported as “effective KATP channel activator”.
